Values of other authors in patent US5817628A, “Dynorphin a suppression of natural killer cell activity” (The Rockefeller University, priority 1992, dated 1998).

test system: NK cells; details: reported by other investigators

Compound | effect on NK activity in vitro (literature)
CN1CC[C@]23c4c5ccc(O)c4O[C@H]2[C@@H](O)C=C[C@H]3[C@H]1C5 [Morphine] | enhanced NK activity in one study
CCC(=O)C(CC(C)N(C)C)(c1ccccc1)c1ccccc1 (stereo not shown) [methadone] | observed in vitro only at methadone concentrations many orders of magnitude higher than those observed during any clinical use of methadone
Met-enkephalin | appears to enhance NK activity
β-endorphin (YGGFMTSEKSQTPLVTLFKNAIIKNAYKKGE; Beta-endorphin; UniProt P01189 237-267, looked up) [endogenous opioid] | increases NK cell activity in vitro
